Measured values taken from PubChem BioAssay AID179 (DTP/NCI, 2004).
pEC50, pIC50: −log10 of the molar value. Activity calls are given as the source filed them.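 Rule for the calls: active = compounds giving half or more protection of infected cells from virus-caused growth loss, again on retest; inactive = the rest.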

Tested on: CEM cells HIV-1 protection, formazan growth assay
Experiment: NCI AIDS Antiviral Assay
Conditions: for pIC50: measured here: growth of uninfected CEM cells
Method in brief: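 Human CEM cells, uninfected and HIV-1-infected, exposed to five drug concentrations; growth measured by soluble formazan assay and scored as percent protection from infection, with protecting compounds retested.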

Structure (SMILES)	pEC50	pIC50	outcome
COc1ccc2cc(C(=O)Nc3ccc(O)c(C(=O)O)c3)ccc2c1OC	< 3.70	< 3.70	
O=Nc1c(N=O)c(N=O)c(N=O)c(N=O)c1N=O	< 4.70	5.63	
O=C1C[C@@H]2[C@@H](C=CC23CC3)N1O	< 2.82	< 2.82	
COc1ccc(C2CC(=O)c3cc(OC)ccc3O2)cc1 (configuration not stated)	< 3.70	< 3.70	
Cc1ccc(C2=Nc3ccc(F)cc3SC(C(=O)O)C2)cc1 (configuration not stated)			inactive
O=C(c1ccccc1)C(O)(Cc1ccccc1)c1ccccc1 (configuration not stated)	< 4.07	4.15	
O=c1/c(=C/c2ccccc2O)sc2nc3ccccc3n12	< 4.75	< 4.75	
Cc1ccc(C(=O)N(Cc2ccccc2)Cc2ccccc2)cc1N=NN(C)C	< 5.01	< 5.01	
O=C(/C=C/c1ccc(O)c(O)c1)OC1CC(O)(C(=O)O)CC(O)C1O (configuration not stated)	< 3.70	4.04	
C=CCc1ccccc1N(C(=O)c1ccccc1)C(C(=O)OCC)c1ccccc1 (configuration not stated)	< 4.88	< 4.88	
CCO[C@@H]1OC(=O)[C@H]2C(c3ccccc3Cl)=NO[C@@H]12	< 3.75	< 3.75	
CC1=C(C(=O)NCc2ccccc2)C(c2ccccc2[N+](=O)[O-])C(C(=O)NCc2ccccc2)=C(C)N1	< 5.12	< 5.12	
NC(=O)CCC(F)(C(N)=O)C(N)=O	< 3.70	< 3.70	
CCCc1c(C(=O)OCC)[nH]c(-c2ccc(-c3[nH]c(C(=O)OCC)c(CCC)c3C(=O)OCC)s2)c1C(=O)OCC	< 5.33	< 5.33	
COc1ccc(N(C)CN(C)c2nc(N(C)C)nc(N(C)C)n2)cc1	< 3.70	4.44	
CN1CCN(Cc2cc3c(nn2)-c2ccccc2C3=O)CC1	< 3.70	3.96	
COc1ccc(OC)c2c1C=C[C@H](C1(C)SCCS1)C2C(C)=O (some centres not stated)	< 3.70	5.05	
O=S(=O)(O)SCc1ccccc1CSS(=O)(=O)O	< 3.70	< 3.70	
O=Cc1cc([N+](=O)[O-])no1			inactive
CC(=O)NC(C=O)C(O[C@H](C)C(=O)NC(C)C(=O)NC(CCC(N)=O)C(=O)OCc1ccccc1)C(O)C(O)COC(=O)CCCCCNc1cccc2[nH]c3ccccc3c(=O)c12 (some centres not stated)	< 3.69	3.90	

Structure (SMILES)	pEC50	pIC50	outcome
O=C1CSC2=NC3=C(CSC/C3=C\c3ccccc3)C(c3ccccc3)N12 (configuration not stated)	< 3.70	4.36	
Cc1ccc(S(=O)(=O)N/N=C2/CCCOC2)cc1	< 3.70	3.86	
Nc1nonc1-c1noc(-c2nonc2N)[n+]1[O-]	< 3.70	4.91	
Cc1c2ccccc2nc(CSOCCO)[n+]1[O-]	< 3.70	< 3.70	
O=S(=O)(O)CCCCCO	< 3.70	< 3.70	
O=C1OC(=O)C2C1C1(c3ccccc3)OC2(c2ccccc2)c2c(Br)c(Br)c(Br)c(Br)c21 (configuration not stated)			inactive
O=C(CNc1ccccc1C(=O)O)Nn1cnc2ccc(S(=O)(=O)Nc3ccccc3C(=O)O)cc2c1=O	< 3.70	< 3.70	
O=C1CC(c2ccccc2)Sc2ccccc2N1 (configuration not stated)	< 3.70	4.05	
O=C1CC(C(O)CO)CC(=O)N1 (configuration not stated)	< 3.70	< 3.70	
Cc1c2cc(Br)ccc2nc(CCl)[n+]1[O-]	< 4.70	6.01	
C=C(C)C(OC(C)=O)C(OC(C)=O)c1c(OC)ccc2ccc(=O)oc12 (configuration not stated)	< 4.30	< 4.30	
Cc1cc(NS(=O)(=O)c2ccc(Nc3c4ccccc4nc4c(C(=O)NC(CO)(CO)CO)cccc34)cc2)no1	< 3.70	4.95	
COC(=O)Nc1nc2ccc(C(=O)c3ccccc3)cc2[nH]1	< 5.70	7.16	
NC(N)=NS(=O)(=O)c1ccc(NC(=O)c2ccc3nc4ccccc4c(Nc4ccc(S(N)(=O)=O)cc4)c3c2)cc1	< 3.70	3.83	
Cn1c(SCc2ccc([N+](=O)[O-])cc2)nnc1C12CC3CC(CC(C3)C1)C2	< 3.70	3.96	
BrCC[N+]12CCCN1CCC2			inactive
COC(=O)c1cc(C(=CCC(=O)N[C@H]2CC[C@@]3(C)[C@@H](CC[C@@H]4[C@@H]3CC[C@]3(C)[C@@H]([C@H](C)CCCC(C)C)CC[C@@H]43)C2)c2cc(Cl)c(OC)c(C(=O)OC)c2)cc(Cl)c1OC	< 3.70	< 3.70	
O=c1[nH]c(Br)nc2n[nH]nc12	< 3.70	5.31	
N#Cc1cc([N+](=O)[O-])ccc1NC(=O)C(=O)Nc1n[nH]c(N)n1	< 3.10	3.16	
O=C(CCC/C(CC(=O)c1ccc(Cl)cc1)=N\NC(=O)c1cc2ccccc2cc1O)Nc1cccc([N+](=O)[O-])c1			inactive

Structure (SMILES)	pEC50	pIC50	outcome
Cn1c2ccccc2c(=NNc2cccc(C(=O)O)c2)c2ccccc21	< 3.70	5.42	
O=C(NCCc1c(-c2ccccc2)[nH]c2ccccc12)C(F)(F)F	< 3.70	4.46	
C[N+](C)(C)C=NCCCCCCN=C[N+](C)(C)C	< 3.70	< 3.70	
CCN1CCC(C)OP1(=O)Cc1ccccc1 (configuration not stated)	< 3.70	< 3.70	
COc1cc2c(c(OC)c1OC)-c1ccc(OC)c(=O)cc1C(NC(=O)c1ccc(N=[N+]=[N-])cc1)CC2 (configuration not stated)	< 3.70	5.23	
NCCS(=O)(=O)O	< 3.70	< 3.70	
CCOC(=O)C1Cc2ccc3c4c(ccc(c24)C1)CC(C(=O)OCC)C3			inactive
CC1=CC(=O)c2cccc(NC3=NCCO3)c21	< 3.70	4.14	
Nc1nc(N)c2cc(Cl)ccc2n1	< 2.89	4.57	
N#CC(C(=O)/C(=N\NC(N)=O)C(C#N)c1ccc(Cl)cc1)c1ccc(Cl)cc1 (configuration not stated)	< 3.22	3.40	
CCOC(=O)/C(C#N)=C1\N[C@H](C(=O)OCC)CO1	< 3.01	< 3.01	
CCOC(=O)C1=C(OC(OCC)C(C)[Se]c2ccccc2)CCC1 (configuration not stated)	< 4.33	4.37	
C1=Cc2nc1c(-c1ccccc1)c1ccc([n-]1)c(-c1ccccc1)c1nc(c(-c3ccncc3)c3ccc([n-]3)c2-c2ccccc2)C=C1.C1=Cc2nc1c(-c1ccccc1)c1ccc([n-]1)c(-c1ccccc1)c1nc(c(-c3ccncc3)c3ccc([n-]3)c2-c2ccccc2)C=C1.C1=Cc2nc1c(-c1ccccc1)c1ccc([n-]1)c(-c1ccccc1)c1nc(c(-c3ccncc3)c3ccc([n-]3)c2-c2ccccc2)C=C1.C1=Cc2nc1c(-c1ccccc1)c1ccc([n-]1)c(-c1ccccc1)c1nc(c(-c3ccncc3)c3ccc([n-]3)c2-c2ccccc2)C=C1.O=S(=O)([O-])C(F)(F)F.[Pt+2].[Zn+2].[Zn+2].[Zn+2].[Zn+2]	< 4.60	< 4.60	
CCSC1=N/C(=C/c2ccccc2O)C(Cl)=N1	4.30	< 3.70	
COc1ccc(/C=C2\N=C(N3CCCC(CO)C3)NC2=O)cc1 (configuration not stated)	< 3.70	< 3.70	
COC1(CCO)CC=CCC1(CCO)OC (configuration not stated)	< 3.70	< 3.70	
COC1(C)C(=O)N(C)C1c1ccccc1 (configuration not stated)	< 3.70	< 3.70	
CC(=O)Oc1ccc(OC(Oc2ccccc2)c2ccccc2)cc1 (configuration not stated)	< 4.05	4.22	
O=[N+]([O-])c1ccc(/C=C/c2ccc(/C=C/c3ccc([N+](=O)[O-])cc3[N+](=O)[O-])cc2)c([N+](=O)[O-])c1			inactive
O=C(O)C1CCCCN1c1ccccc1[N+](=O)[O-] (configuration not stated)			inactive
